Laboratory results taken from patent US12568967B2, “Compositions comprising pyridine carboxylate herbicides with synthetic auxin herbicides or auxin transport inhibitors” (priority 2018, dated 2026).

Key:
[1] = test system: Lolium multiflorum (Italian ryegrass, LOLMU); test: Greenhouse postemergence trial LOLMU; format: in vivo
Procedure: (§1) Seeds of the desired test plant species were planted in a 90:10% v/v (volume/volume) mixture of PRO-MIX® BX (Premier Tech Horticulture, Quakertown, PA, USA) and PROFILE® GREENS GRADE™ (Profile Products LLC, Buffalo Grove, IL, USA) planting mixture, which typically has a pH of 5.2 to 6.2 and an organic matter content of at least 50 percent, in plastic pots with a surface area of 103.2 square centimeters (cm^2). […] The plants were grown for 7-36 days (d) in a greenhouse with an approximate 14-hour (h) photo-period which was maintained at about 23° C. during the day and 22° C. during the night. Nutrients and water were added on a regular basis and supplemental lighting was provided with overhead metal halide 1000-Watt lamps as necessary. The plants were employed for testing when they reached the second or third true leaf stage.
(§2) Emulsifiable concentrates of each of each pyridine carboxylate herbicide (Compound A or Compound B) were prepared at 100 grams acid equivalent per liter (g ae/L). The emulsifiable concentrates also included a safener, cloquintocet-mexyl, at 120 grams active ingredient per liter (g ai/L), unless otherwise noted below. An aliquot of each emulsifiable concentrate was placed in a 25 mL glass vial and diluted with an aqueous mixture of 1.25% (v/v) ACTIROB® B esterified rapeseed oil (Bayer Crop Science, Research Triangle Park, NC, USA) or MSO® Concentrate with LECI-TECH® methylated soybean oil (Loveland Products, Loveland, CO, USA) to obtain concentrated stock solutions at the highest application rate for each herbicide, based upon a 12 milliliter (mL) application volume at a rate of 187 liters per hectare (L/ha). The concentrated stock solutions were further diluted with an aqueous mixture of 1.25% v/v ACTIROB® B or MSO® Concentrate with LECI-TECH® to obtain stock solutions at reduced application rates for each herbicide. Spray solutions of the herbicide combinations (Compound A or Compound B plus synthetic auxin herbicide or auxin transport inhibitor) were prepared by adding weighed amounts or aliquots of the synthetic auxin herbicide or auxin transport inhibitor to the stock solutions of Compound A or Compound B to form 12-mL spray solutions in two-way combinations.
(§3) The spray solutions were applied to the plant material with an overhead Mandel track sprayer equipped with 8002E nozzles calibrated to deliver 187 L/ha over an application area of 0.503 square meters (m^2) at a spray height of 18 inches (43 centimeters (cm)) above the average plant canopy. Control plants were sprayed in the same manner with the solvent blank. All pyridine carboxylate herbicide (component a) application rates are given as “g ae/ha” and all synthetic auxin herbicide or auxin transport inhibitor (component b) application rates are given as “g ai/ha.”
(§4) The treated plants and control plants were placed in a greenhouse as described above and watered by sub-irrigation to prevent wash-off of the test compounds. After 20-22 d, the condition of the test plants as compared with that of the control plants was determined visually and scored on a scale of 0 to 100 percent where 0 corresponds to no injury and 100 corresponds to complete kill.

[2] = test system: Polygonum convolvulus (wild buckwheat, POLCO); test: Greenhouse postemergence trial POLCO; format: in vivo
Procedure: as §1, §2, §3, §4

[3] = test system: Echinochloa crus-galli (barnyard grass, ECHCG); test: Greenhouse postemergence trial ECHCG; format: in vivo
Procedure: as §1, §2, §3, §4

[4] = test system: Kochia scoparia (kochia, KCHSC); test: Greenhouse postemergence trial KCHSC; format: in vivo
[5] = test system: Viola tricolor (wild pansy, VIOTR); test: Greenhouse postemergence trial VIOTR;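 note: greenhouse plants sprayed at second to third true leaf stage, injury rated visually after 20-22 d against solvent-blank sprayed controls, 0 meaning no injury and 100 complete kill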
[6] = test system: Abutilon theophrasti (velvetleaf, ABUTH); test: Greenhouse postemergence trial ABUTH; format: in vivo
[7] = test system: Cirsium arvense (Canadian thistle, CIRAR); test: Greenhouse postemergence trial CIRAR; format: in vivo
[8] = test system: Oryza sativa (common rice, ORYSA); test: Greenhouse postemergence trial ORYSA; format: in vivo; settings: diflufenzopyr 10 g/ha
Procedure: as §1
Emulsifiable concentrates of each of each pyridine carboxylate herbicide (Compound A or Compound B) were prepared at 100 grams acid equivalent per liter (g ae/L). […]
as §4

[9] = test system: Setaria faberi (giant foxtail, SETFA); test: Greenhouse postemergence trial SETFA; format: in vivo
Procedure: as §1, §2, §3, §4

[10] = test system: Digitaria sanguinalis (large crabgrass, DIGSA); test: Greenhouse postemergence trial DIGSA; format: in vivo
Procedure: as §1, §2, §3, §4

[11] = test system: Brassica napus (spring rape, BRSNN); test: Greenhouse postemergence trial BRSNN; format: in vivo; settings: diflufenzopyr 10 g/ha
[12] = test system: Rumex obtusifolius (broad-leaf dock, RUMOB); test: Greenhouse postemergence trial RUMOB; format: in vivo
Procedure: as §1, §2, §3, §4

[13] = test system: Helianthus annuus (common sunflower, HELAN); test: Greenhouse postemergence trial HELAN; format: in vivo; settings: HELAN; 140 g/ha alone
[14] = test system: Sorghum vulgare (grain sorghum, SORVU); test: Greenhouse postemergence trial SORVU; format: in vivo; settings: SORVU; 140 g/ha alone
Procedure: as §1
(§5) Emulsifiable concentrates of each of each pyridine carboxylate herbicide (Compound A or Compound B) were prepared at 100 grams acid equivalent per liter (g ae/L). The emulsifiable concentrates also included a safener, cloquintocet-mexyl, at 120 grams active ingredient per liter (g ai/L), unless otherwise noted below. An aliquot of each emulsifiable concentrate was placed in a 25 mL glass vial and diluted with an aqueous mixture of 1.25% (v/v) ACTIROB® B esterified rapeseed oil (Bayer Crop Science, Research Triangle Park, NC, USA) or MSO® Concentrate with LECI-TECH® methylated soybean oil (Loveland Products, Loveland, CO, USA) to obtain concentrated stock solutions at the highest application rate for each herbicide, based upon a 12 milliliter (mL) application volume at a rate of 187 liters per hectare (L/ha). The concentrated stock solutions were further diluted with an aqueous mixture of 1.25% v/v ACTIROB® B or MSO® Concentrate with LECI-TECH® to obtain stock solutions at reduced application rates for each herbicide. Spray solutions of the herbicide combinations (Compound A or Compound B plus synthetic auxin herbicide or auxin transport inhibitor) were prepared by adding weighed amounts or aliquots of the synthetic auxin herbicide or auxin transport inhibitor to the stock solutions of Compound A or Compound B to form 12-mL spray solutions in two-way combinations. […]
as §4

[15] = test system: Cyperus esculentus (nutsedge, CYPES); test: Greenhouse postemergence trial CYPES; format: in vivo; settings: CYPES; 140 g/ha alone
Procedure: as §1, §5, §4

[16] = test system: Brassica napus (winter rape, BRSNW); test: Greenhouse postemergence trial BRSNW; format: in vivo; settings: Brassica napus, post-emergence, read-out: % visual injury Obs
[17] = test system: Alopecurus myosuroides (blackgrass, ALOMY); test: Greenhouse postemergence trial ALOMY; format: in vivo; settings: ALOMY; 140 g/ha alone
Procedure: as §1, §5, §4

[18] = test system: Avena fatua (wild oat, AVEFA); test: Greenhouse postemergence trial AVEFA; format: in vivo; settings: AVEFA; 140 g/ha alone
Procedure: as §1, §5, §4

[19] = test system: Leptochloa chinensis (Chinese sprangletop, LEFCH); test: Greenhouse postemergence trial LEFCH; format: in vivo; settings: LEFCH; 140 g/ha alone
Procedure: as §1, §5, §4

[20] = test system: Stellaria media (chickweed, STEME); test: Greenhouse postemergence trial STEME; format: in vivo; settings: STEME; 140 g/ha alone
[21] = test system: Glycine max (volunteer soybean, GLXMA); test: Greenhouse postemergence trial GLXMA; format: in vivo; settings: GLXMA; 140 g/ha alone
[22] = test system: Ipomoea hederacea (ivyleaf morningglory, IPOHE); test: Greenhouse postemergence trial IPOHE; format: in vivo; settings: IPOHE; 140 g/ha alone
Procedure: as §1, §2, §3, §4

C/C(=N\NC(=O)Nc1cc(F)cc(F)c1)c1ncccc1C(=O)O [Diflufenzopyr]
20%: SETFA Obs (% visual injury) ([9]; diflufenzopyr 10 g/ha)
8%: LOLMU Obs (% visual injury) ([1]; diflufenzopyr 10 g/ha) | VIOTR Obs (% visual injury) ([5]; diflufenzopyr 10 g/ha) | ORYSA Obs (% visual injury) [8] | RUMOB Obs (% visual injury) ([12]; diflufenzopyr 10 g/ha)
38%: ABUTH Obs (% visual injury) ([6]; diflufenzopyr 10 g/ha)
70%: BRSNN Obs (% visual injury) [11]
5%: POLCO Obs (% visual injury) ([2]; diflufenzopyr 10 g/ha)
10%: KCHSC Obs (% visual injury) ([4]; diflufenzopyr 10 g/ha) | CIRAR Obs (% visual injury) ([7]; diflufenzopyr 10 g/ha)
0%: ECHCG Obs (% visual injury) ([3]; diflufenzopyr 10 g/ha) | DIGSA Obs (% visual injury) ([10]; diflufenzopyr 10 g/ha)

O=C(O)c1ccccc1C(=O)Nc1cccc2ccccc12 [Naptalam]
35%: % visual injury, Obs [15]
0%: % visual injury, Obs ([1]; LOLMU, 140 g/ha alone) | % visual injury, Obs ([2]; POLCO, 140 g/ha alone) | % visual injury, Obs [13] | % visual injury, Obs ([3]; ECHCG, 140 g/ha alone) | % visual injury, Obs ([4]; KCHSC, 140 g/ha alone) | % visual injury, Obs [14] | % visual injury, Obs ([5]; VIOTR, 140 g/ha alone) | % visual injury, Obs ([6]; ABUTH, 140 g/ha alone) | % visual injury, Obs ([7]; CIRAR, 140 g/ha alone) | plant injury at 140 g/ha [16] | % visual injury, Obs [17] | % visual injury, Obs [18] | % visual injury, Obs ([9]; SETFA, 140 g/ha alone) | % visual injury, Obs [19] | % visual injury, Obs ([10]; DIGSA, 140 g/ha alone) | % visual injury, Obs [20] | % visual injury, Obs ([12]; RUMOB, 140 g/ha alone) | % visual injury, Obs [22]
13%: % visual injury, Obs [21]
